In patent US10544153B2, “Benzoic acid, benzoic acid derivatives and heteroaryl carboxylic acid conjugates of oxycodone, prodrugs, methods of making and use thereof” (KemPharm, Inc., priority 2014, dated 2020):

Test: Intranasal PK in rats: plasma concentrations of released oxymorphone by LC-MS/MS
Details: Table 6, equivalent to 2 mg/kg freebase oxycodone

SMILES	AUC	Cmax	tmax
COc1ccc2c3c1O[C@H]1C(OC(=O)c4ccc(O)cc4)=CC[C@@]4(O)[C@@H](C2)N(C)CC[C@]314 [Conjugate 4-OH-Bz-OC]	11.8 ng·h/mL	19.0 ng/mL	27 min
COc1ccc2c3c1OC1C(OC(=O)C(C)c4ccc(CC(C)C)cc4)=CCC4(O)C(C2)N(C)CCC314 (mixture of isomers) [Conjugate 6-lbu-OC]	0.7 ng·h/mL	1.0 ng/mL	30 min
COc1ccc2c3c1O[C@H]1C(OC(=O)/C=C/c4ccccc4)=CC[C@@]4(O)[C@@H](C2)N(C)CC[C@]314 [6-Cinnamate-OC]	1.7 ng·h/mL	2.4 ng/mL	30 min

Same assay, conditions: Table 6, relative to oxycodone (OC)

SMILES	%-AUC of OC	%-Cmax of OC	%-tmax of OC
COc1ccc2c3c1O[C@H]1C(OC(=O)c4ccc(O)cc4)=CC[C@@]4(O)[C@@H](C2)N(C)CC[C@]314 [Conjugate 4-OH-Bz-OC]	58%	61%	90%
COc1ccc2c3c1OC1C(OC(=O)C(C)c4ccc(CC(C)C)cc4)=CCC4(O)C(C2)N(C)CCC314 (mixture of isomers) [Conjugate 6-lbu-OC]	11%	11%	143%
COc1ccc2c3c1O[C@H]1C(OC(=O)/C=C/c4ccccc4)=CC[C@@]4(O)[C@@H](C2)N(C)CC[C@]314 [6-Cinnamate-OC]	18%	18%	133%

Test: Tamper resistance: percent of OC released under tampering conditions, LC-MS/MS
Assay type: physicochemical
Details: 1N HCl, RT, 1 hour
Procedure: Effective abuse deterrent forms of drugs of abuse can also be resistant to chemical tampering. The prodrugs in the present technology also impart this characteristic. Several common tampering scenarios were employed and percent of OC released were determined by liquid chromatography with tandem mass spectrometry (LC-MS/MS). The results as shown in Table 7 indicated a very high degree of tamper resistance in the example OC prodrugs, releasing little to no OC.

SMILES	percent of OC released
COc1ccc2c3c1O[C@H]1C(OC(=O)c4ccc(O)cc4)=CC[C@@]4(O)[C@@H](C2)N(C)CC[C@]314 [Conjugate 4-OH-Bz-OC]	0%
COc1ccc2cc(C(C)C(=O)OC3=CCC4(O)C5Cc6ccc(OC)c7c6C4(CCN5C)C3O7)ccc2c1 (stereo not drawn) [Naprox-OC]	<1%
COc1ccc(C(=O)OC2=CC[C@@]3(OC(=O)c4ccc(OC)cc4)[C@H]4Cc5ccc(OC)c6c5[C@@]3(CCN4C)[C@H]2O6)cc1 [(4-MeO-Bz)2-OC]	0%
COc1cc(C(=O)OC2=CC[C@@]3(OC(=O)c4ccc(O)c(OC)c4)[C@H]4Cc5ccc(OC)c6c5[C@@]3(CCN4C)[C@H]2O6)ccc1O [(4-OH-3-MeO-Bz)2-OC]	0%
COc1ccc2c3c1OC1C(OC(=O)C(C)c4ccc(CC(C)C)cc4)=CCC4(O)C(C2)N(C)CCC314 (mixture of isomers) [Conjugate 6-lbu-OC]	2%
COc1ccc2c3c1O[C@H]1C(OC(=O)c4cccc(O)c4)=CC[C@@]4(OC(=O)c5cccc(O)c5)[C@@H](C2)N(C)CC[C@]314 [(3-OH-Bz)2-OC]	0%
COc1ccc2c3c1O[C@H]1C(OC(=O)c4ccccc4)=CC[C@@]4(O)[C@@H](C2)N(C)CC[C@]314 [Bz-OC]	0%
COc1ccc2c3c1O[C@H]1C(OC(=O)c4cccc(N)c4)=CC[C@@]4(O)[C@@H](C2)N(C)CC[C@]314 [Conjugate 3-ABz-OC]	<1%
COc1ccc2c3c1O[C@H]1C(OC(=O)/C=C/c4ccccc4)=CC[C@@]4(O)[C@@H](C2)N(C)CC[C@]314 [6-Cinnamate-OC]	0%

Same assay, conditions: 5% Bicarbonate, RT, 1 hour

SMILES	percent of OC released
COc1ccc2c3c1O[C@H]1C(OC(=O)c4ccc(O)cc4)=CC[C@@]4(O)[C@@H](C2)N(C)CC[C@]314 [Conjugate 4-OH-Bz-OC]	0%
COc1ccc2cc(C(C)C(=O)OC3=CCC4(O)C5Cc6ccc(OC)c7c6C4(CCN5C)C3O7)ccc2c1 (stereo not drawn) [Naprox-OC]	0%
COc1ccc(C(=O)OC2=CC[C@@]3(OC(=O)c4ccc(OC)cc4)[C@H]4Cc5ccc(OC)c6c5[C@@]3(CCN4C)[C@H]2O6)cc1 [(4-MeO-Bz)2-OC]	0%
COc1cc(C(=O)OC2=CC[C@@]3(OC(=O)c4ccc(O)c(OC)c4)[C@H]4Cc5ccc(OC)c6c5[C@@]3(CCN4C)[C@H]2O6)ccc1O [(4-OH-3-MeO-Bz)2-OC]	0%
COc1ccc2c3c1OC1C(OC(=O)C(C)c4ccc(CC(C)C)cc4)=CCC4(O)C(C2)N(C)CCC314 (mixture of isomers) [Conjugate 6-lbu-OC]	2%
COc1ccc2c3c1O[C@H]1C(OC(=O)c4cccc(O)c4)=CC[C@@]4(OC(=O)c5cccc(O)c5)[C@@H](C2)N(C)CC[C@]314 [(3-OH-Bz)2-OC]	0%
COc1ccc2c3c1O[C@H]1C(OC(=O)c4ccccc4)=CC[C@@]4(O)[C@@H](C2)N(C)CC[C@]314 [Bz-OC]	0%
COc1ccc2c3c1O[C@H]1C(OC(=O)c4cccc(N)c4)=CC[C@@]4(O)[C@@H](C2)N(C)CC[C@]314 [Conjugate 3-ABz-OC]	<1%
COc1ccc2c3c1O[C@H]1C(OC(=O)/C=C/c4ccccc4)=CC[C@@]4(O)[C@@H](C2)N(C)CC[C@]314 [6-Cinnamate-OC]	<1%

Same assay, conditions: Water, RT, 1 hour

SMILES	percent of OC released
COc1ccc2c3c1O[C@H]1C(OC(=O)c4ccc(O)cc4)=CC[C@@]4(O)[C@@H](C2)N(C)CC[C@]314 [Conjugate 4-OH-Bz-OC]	0%
COc1ccc2cc(C(C)C(=O)OC3=CCC4(O)C5Cc6ccc(OC)c7c6C4(CCN5C)C3O7)ccc2c1 (stereo not drawn) [Naprox-OC]	0%
COc1ccc(C(=O)OC2=CC[C@@]3(OC(=O)c4ccc(OC)cc4)[C@H]4Cc5ccc(OC)c6c5[C@@]3(CCN4C)[C@H]2O6)cc1 [(4-MeO-Bz)2-OC]	0%
COc1cc(C(=O)OC2=CC[C@@]3(OC(=O)c4ccc(O)c(OC)c4)[C@H]4Cc5ccc(OC)c6c5[C@@]3(CCN4C)[C@H]2O6)ccc1O [(4-OH-3-MeO-Bz)2-OC]	0%
COc1ccc2c3c1OC1C(OC(=O)C(C)c4ccc(CC(C)C)cc4)=CCC4(O)C(C2)N(C)CCC314 (mixture of isomers) [Conjugate 6-lbu-OC]	0%
COc1ccc2c3c1O[C@H]1C(OC(=O)c4cccc(O)c4)=CC[C@@]4(OC(=O)c5cccc(O)c5)[C@@H](C2)N(C)CC[C@]314 [(3-OH-Bz)2-OC]	0%
COc1ccc2c3c1O[C@H]1C(OC(=O)c4ccccc4)=CC[C@@]4(O)[C@@H](C2)N(C)CC[C@]314 [Bz-OC]	0%
COc1ccc2c3c1O[C@H]1C(OC(=O)c4cccc(N)c4)=CC[C@@]4(O)[C@@H](C2)N(C)CC[C@]314 [Conjugate 3-ABz-OC]	0%
COc1ccc2c3c1O[C@H]1C(OC(=O)/C=C/c4ccccc4)=CC[C@@]4(O)[C@@H](C2)N(C)CC[C@]314 [6-Cinnamate-OC]	0%

Same assay, conditions: Water, RT, 24 hours

SMILES	percent of OC released
COc1ccc2c3c1O[C@H]1C(OC(=O)c4ccc(O)cc4)=CC[C@@]4(O)[C@@H](C2)N(C)CC[C@]314 [Conjugate 4-OH-Bz-OC]	0%
COc1ccc2cc(C(C)C(=O)OC3=CCC4(O)C5Cc6ccc(OC)c7c6C4(CCN5C)C3O7)ccc2c1 (stereo not drawn) [Naprox-OC]	0%
COc1ccc(C(=O)OC2=CC[C@@]3(OC(=O)c4ccc(OC)cc4)[C@H]4Cc5ccc(OC)c6c5[C@@]3(CCN4C)[C@H]2O6)cc1 [(4-MeO-Bz)2-OC]	0%
COc1cc(C(=O)OC2=CC[C@@]3(OC(=O)c4ccc(O)c(OC)c4)[C@H]4Cc5ccc(OC)c6c5[C@@]3(CCN4C)[C@H]2O6)ccc1O [(4-OH-3-MeO-Bz)2-OC]	0%
COc1ccc2c3c1OC1C(OC(=O)C(C)c4ccc(CC(C)C)cc4)=CCC4(O)C(C2)N(C)CCC314 (mixture of isomers) [Conjugate 6-lbu-OC]	0%
COc1ccc2c3c1O[C@H]1C(OC(=O)c4cccc(O)c4)=CC[C@@]4(OC(=O)c5cccc(O)c5)[C@@H](C2)N(C)CC[C@]314 [(3-OH-Bz)2-OC]	0%
COc1ccc2c3c1O[C@H]1C(OC(=O)c4ccccc4)=CC[C@@]4(O)[C@@H](C2)N(C)CC[C@]314 [Bz-OC]	0%
COc1ccc2c3c1O[C@H]1C(OC(=O)c4cccc(N)c4)=CC[C@@]4(O)[C@@H](C2)N(C)CC[C@]314 [Conjugate 3-ABz-OC]	0%
COc1ccc2c3c1O[C@H]1C(OC(=O)/C=C/c4ccccc4)=CC[C@@]4(O)[C@@H](C2)N(C)CC[C@]314 [6-Cinnamate-OC]	0%

Test: Intranasal PK in rats (Table 4)
Details: title: oxymorphone released (released oxycodone), equivalent to 2 mg/kg freebase oxycodone

SMILES	Cmax	tmax
COc1ccc2c3c1O[C@H]1C(OC(=O)c4ccc(O)cc4)=CC[C@@]4(O)[C@@H](C2)N(C)CC[C@]314 [Conjugate 4-OH-Bz-OC]	759.2 ng/mL	4.98 min
COc1ccc2c3c1OC1C(OC(=O)C(C)c4ccc(CC(C)C)cc4)=CCC4(O)C(C2)N(C)CCC314 (mixture of isomers) [Conjugate 6-lbu-OC]	131.7 ng/mL	4.98 min
COc1ccc2c3c1O[C@H]1C(OC(=O)/C=C/c4ccccc4)=CC[C@@]4(O)[C@@H](C2)N(C)CC[C@]314 [6-Cinnamate-OC]	497.2 ng/mL	4.98 min

Same assay, conditions: title: oxymorphone released (released oxycodone), relative to oxycodone (OC)

SMILES	%-Cmax of OC	%-tmax of OC
COc1ccc2c3c1O[C@H]1C(OC(=O)c4ccc(O)cc4)=CC[C@@]4(O)[C@@H](C2)N(C)CC[C@]314 [Conjugate 4-OH-Bz-OC]	41%	100%
COc1ccc2c3c1OC1C(OC(=O)C(C)c4ccc(CC(C)C)cc4)=CCC4(O)C(C2)N(C)CCC314 (mixture of isomers) [Conjugate 6-lbu-OC]	10%	100%
COc1ccc2c3c1O[C@H]1C(OC(=O)/C=C/c4ccccc4)=CC[C@@]4(O)[C@@H](C2)N(C)CC[C@]314 [6-Cinnamate-OC]	22%	100%

Test: Oral PK in rats: plasma concentrations of oxymorphone by LC-MS/MS
Details: oxymorphone released, conjugate equivalent to 2 mg/kg freebase oxycodone

SMILES	AUC	Cmax	tmax
COc1ccc2c3c1O[C@H]1C(OC(=O)c4ccc(O)cc4)=CC[C@@]4(O)[C@@H](C2)N(C)CC[C@]314 [Conjugate 4-OH-Bz-OC]	3.3 ng·h/mL	2.1 ng/mL	15 min
COc1ccc2c3c1OC1C(OC(=O)C(C)c4ccc(CC(C)C)cc4)=CCC4(O)C(C2)N(C)CCC314 (mixture of isomers) [Conjugate 6-lbu-OC]	8.4 ng·h/mL	3.7 ng/mL	69 min
COc1ccc2c3c1O[C@H]1C(OC(=O)c4cccc(N)c4)=CC[C@@]4(O)[C@@H](C2)N(C)CC[C@]314 [Conjugate 3-ABz-OC]	3.6 ng·h/mL	2.0 ng/mL	26.4 min
COc1ccc2c3c1O[C@H]1C(OC(=O)/C=C/c4ccccc4)=CC[C@@]4(O)[C@@H](C2)N(C)CC[C@]314 [6-Cinnamate-OC]	9.2 ng·h/mL	4.3 ng/mL	21 min

Same assay, conditions: oxymorphone released, relative to oxycodone (OC)

SMILES	%-AUC of OC	%-Cmax of OC	%-tmax of OC
COc1ccc2c3c1O[C@H]1C(OC(=O)c4ccc(O)cc4)=CC[C@@]4(O)[C@@H](C2)N(C)CC[C@]314 [Conjugate 4-OH-Bz-OC]	55%	49%	100%
COc1ccc2c3c1OC1C(OC(=O)C(C)c4ccc(CC(C)C)cc4)=CCC4(O)C(C2)N(C)CCC314 (mixture of isomers) [Conjugate 6-lbu-OC]	83%	59%	131%
COc1ccc2c3c1O[C@H]1C(OC(=O)c4cccc(N)c4)=CC[C@@]4(O)[C@@H](C2)N(C)CC[C@]314 [Conjugate 3-ABz-OC]	69%	49%	97%
COc1ccc2c3c1O[C@H]1C(OC(=O)/C=C/c4ccccc4)=CC[C@@]4(O)[C@@H](C2)N(C)CC[C@]314 [6-Cinnamate-OC]	91%	68%	40%

Test: Oral PK in rats: plasma concentrations of released oxycodone by LC-MS/MS
Details: conjugate equivalent to 2 mg/kg freebase oxycodone

SMILES	AUC	Cmax	tmax
COc1ccc2c3c1O[C@H]1C(OC(=O)c4ccc(O)cc4)=CC[C@@]4(O)[C@@H](C2)N(C)CC[C@]314 [Conjugate 4-OH-Bz-OC]	53.5 ng·h/mL	35.4 ng/mL	45 min
COc1ccc2c3c1OC1C(OC(=O)C(C)c4ccc(CC(C)C)cc4)=CCC4(O)C(C2)N(C)CCC314 (mixture of isomers) [Conjugate 6-lbu-OC]	77.9 ng·h/mL	39.5 ng/mL	26.4 min
COc1ccc2c3c1O[C@H]1C(OC(=O)c4cccc(N)c4)=CC[C@@]4(O)[C@@H](C2)N(C)CC[C@]314 [Conjugate 3-ABz-OC]	52.9 ng·h/mL	45.5 ng/mL	33 min
COc1ccc2c3c1O[C@H]1C(OC(=O)/C=C/c4ccccc4)=CC[C@@]4(O)[C@@H](C2)N(C)CC[C@]314 [6-Cinnamate-OC]	55.9 ng·h/mL	35.5 ng/mL	18 min

Same assay, conditions: relative to oxycodone (OC)

SMILES	%-AUC of OC	%-Cmax of OC	%-tmax of OC
COc1ccc2c3c1O[C@H]1C(OC(=O)c4ccc(O)cc4)=CC[C@@]4(O)[C@@H](C2)N(C)CC[C@]314 [Conjugate 4-OH-Bz-OC]	58%	69%	188%
COc1ccc2c3c1OC1C(OC(=O)C(C)c4ccc(CC(C)C)cc4)=CCC4(O)C(C2)N(C)CCC314 (mixture of isomers) [Conjugate 6-lbu-OC]	83%	62%	47%
COc1ccc2c3c1O[C@H]1C(OC(=O)c4cccc(N)c4)=CC[C@@]4(O)[C@@H](C2)N(C)CC[C@]314 [Conjugate 3-ABz-OC]	83%	96%	122%
COc1ccc2c3c1O[C@H]1C(OC(=O)/C=C/c4ccccc4)=CC[C@@]4(O)[C@@H](C2)N(C)CC[C@]314 [6-Cinnamate-OC]	60%	56%	32%
